PubChem BioAssay (NCI)
Values joined by “and” are separate entries in the source; they are usually repeats but may differ in a detail not shown here. Identical values can stand only once.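 A five-concentration, 48-hour dose response in 96-well plates underlies each endpoint, interpolated linearly between surrounding concentrations. GI50: concentration for 50% inhibition of growth. At the TGI there is no net growth.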

Experiments:
Assay in all cases: DTP human tumour cell line panel, 48 h
ACHN renal = system: ACHN renal
CCRF-CEM leukemia = system: CCRF-CEM leukemia
HCT-15 colon = system: HCT-15 colon
K-562 leukemia = system: K-562 leukemia
NCI-H23 lung = system: NCI-H23 lung
OVCAR-8 ovarian = system: OVCAR-8 ovarian
SF-268 CNS = system: SF-268 CNS
U251 CNS = system: U251 CNS
A549 NSCLC = system: A549 NSCLC
HS 578T breast = system: HS 578T breast

| Compound | TGI (ACHN renal) [µM] | TGI (CCRF-CEM leukemia) | TGI (HCT-15 colon) | TGI (K-562 leukemia) [µM] | TGI (NCI-H23 lung) | TGI (OVCAR-8 ovarian) | TGI (SF-268 CNS) | TGI (U251 CNS) | TGI (A549 NSCLC) | TGI (HS 578T breast) [µM] | GI50 (A549 NSCLC) [µM] | GI50 (ACHN renal) [µM] | GI50 (CCRF-CEM leukemia) [µM] | GI50 (HCT-15 colon) [µM] | GI50 (HS 578T breast) [µM] | GI50 (NCI-H23 lung) [µM] | GI50 (OVCAR-8 ovarian) | GI50 (SF-268 CNS) [µM] | GI50 (U251 CNS) [µM] | GI50 (K-562 leukemia) [µM] |
| --- | --- | --- | --- | --- | --- | --- | --- | --- | --- | --- | --- | --- | --- | --- | --- | --- | --- | --- | --- | --- |
| CCCCCCCCCCCCOC(=S)NC | 35.2 | > 100 µM | 32.5 µM | 45.9 | 40.9 µM | 32.9 µM | 36 µM | 32.8 µM |  |  |  |  |  |  |  |  |  |  |  |  |
| CN(/C(=N\O)c1ccccc1)c1ccccc1 |  |  |  |  | 61.2 µM | 64.9 µM | 97 µM | 37.6 µM | > 100 µM |  |  |  |  |  |  |  |  |  |  |  |
| COc1ccc(NCc2c(O)ccc3ccccc23)cc1 | 31.2 |  | > 100 µM | 38.3 | > 100 µM | 29.2 µM | 40.7 µM | > 100 µM | > 100 µM | > 100 |  |  |  |  |  |  |  |  |  |  |
| C[C@@]1(CBr)C[C@@](C)(/C=C/Cl)[C@@H](Cl)C[C@H]1Cl | 25.7 | 19.8 µM |  | 25.3 | 27.9 µM | 29.9 µM | 30.1 µM | 27.9 µM | 26.1 µM |  |  |  |  |  |  |  |  |  |  |  |
| COC(=O)C1=C2CO[C@@H]3C[C@H]4C(C)(C)CCC[C@]4(C)C(=CC1)[C@]23C | > 100 | 46.4 µM | > 100 µM |  | > 100 µM | > 100 µM | > 100 µM | > 100 µM | > 100 µM | > 100 | 36.8 | 72 | 21.6 | 41.7 | 47 | 29.8 | 40.2 µM | 98.3 | 43.4 |  |
| O/N=C1/C(=C/c2ccc(Cl)cc2)CCCC1C(NO)c1ccc(Cl)cc1 (configuration not stated) | > 100 | 42.6 µM | 46.8 µM | 62.2 | 54 µM | 55.3 µM | 40.2 µM | 50.8 µM | 57.4 µM |  |  |  |  |  |  |  |  |  |  |  |
| CCCCc1oc2ccccc2c1C(=O)c1cc(I)c(OCCN(CC)CC)c(I)c1 | 15.6 | 4.35 µM and 12 µM | 4.68 µM and 8.21 µM | 9.87 | 8.87 µM and 18 µM | 13.2 µM and 92.5 µM | 14 µM and 38.9 µM | 3 µM and 7.73 µM | 15.8 µM and 70.3 µM |  | 3.72 | 4.14 | 1.82 | 2.06 |  | 2.67 | 3.37 µM and 11 µM | 3.28 | 1.57 |  |
| NC(N)=N/N=C(/c1ccccc1)c1ccc(O)cc1O | > 100 |  | > 100 µM | > 100 | > 100 µM | 59.2 µM | > 100 µM | 57.3 µM | > 100 µM | 80.3 |  |  |  |  |  |  |  |  |  |  |
| CC(C)(C)n1cc(-c2ccnc(NCCCNS(=O)(=O)c3ccc(Cl)cc3)c2)c(-c2cccc(O)c2)n1 | 4.48 | 7.85 µM | 3.35 µM |  | 3.48 µM | 5.81 µM | 5.78 µM | 3.42 µM | 4.97 µM | 4.81 | 1.97 | 1.97 | 2.13 | 1.52 | 1.84 | 1.68 | 2.22 µM | 2.18 | 1.62 |  |
| C=CC1=C(C)C(Cc2[nH]c(/C=c3\[nH]/c(=C/C4=NC(=O)C(C)/C4=C\C)c(C)c3CCC(=O)O)c(CCC(=O)OC)c2C)NC1=O (configuration not stated) | 77.2 | > 100 µM | 53.9 µM | 61.9 | 53.6 µM | > 100 µM | 59.5 µM | 52.9 µM | > 100 µM |  | 40.2 | 26.3 | 31.2 | 21.6 |  | 28.3 | 34.9 µM | 21.2 | 22.5 | 25.7 |
| COc1cc(C(=O)/C=C/c2c(-c3cccs3)nc3ccccn23)cc(OC)c1OC | 5.09 | 6.85 µM | 5.31 µM |  | 5.33 µM | 6.31 µM | 8.47 µM | 6.03 µM | 5.89 µM |  | 2.04 | 2.09 | 1.66 | 1.6 |  | 2.2 | 1.68 µM | 2.37 | 1.66 |  |
| CCc1ccccc1NC(=O)C1=C(C)NC(C)=C(C(=O)Nc2ccccc2CC)C1c1ccc(NC(C)=O)cc1 | > 100 | 65.8 µM |  | 77.9 | > 100 µM | > 100 µM | > 100 µM | > 100 µM | > 100 µM |  |  |  |  |  |  |  |  |  |  |  |
| CCC[CH2][Sn]1([CH2]CCC)[O]CC([CH2][Sn]([c]2ccccc2)([c]2ccccc2)[c]2ccccc2)[O]1 (configuration not stated) | 32.5 | 20.8 µM | 26.4 µM | 13.6 |  | 34 µM | 19 µM | 19.9 µM | 31.4 µM |  | 16.5 | 17 | 2.26 | 13.2 |  |  | 15.2 µM | 6.79 | 6.5 | 2.98 |
| CC(=O)OC1C/C(C)=C/[C@H](O)CC(C)/C=C/[C@@]2(C)CCC(C(C)(C)O)C12 (some centres not stated) | > 100 | > 100 µM | > 100 µM | > 100 | > 100 µM | > 100 µM | > 100 µM | > 100 µM | > 100 µM |  |  |  |  |  |  |  |  |  |  |  |
| COc1cc(CCC(=O)NS(=O)(=O)c2ccccc2)cc(OC)c1OC | > 100 | > 100 µM |  | > 100 | > 100 µM | > 100 µM | > 100 µM | > 100 µM | > 100 µM |  |  |  |  |  |  |  |  |  |  |  |
| CN(C(=O)C1CC1)C1C2CN3CCC(O2)C13 (configuration not stated) | > 100 | > 100 µM | > 100 µM | > 100 | > 100 µM |  | > 100 µM | > 100 µM | > 100 µM |  |  |  |  |  |  |  |  |  |  |  |
| CC(=O)[CH-]C(=O)c1ccccc1.CC(=O)[CH-]C(=O)c1ccccc1.CC[O-].O=C1C=C([O-])C(=O)c2ccccc21.[Ti+4] | > 100 | > 100 µM | > 100 µM | > 100 | > 100 µM | > 100 µM | > 100 µM | > 100 µM | > 100 µM |  | 46.3 | 66.5 | 21 | 56.2 |  | 10.8 | > 100 µM | > 100 | 32.4 | > 100 |
